From US9738669B2, “Pentaaza macrocyclic ring complexes possessing oral bioavailability” (Galera Labs, LLC, priority 2015, dated 2017)

Assay: Intraduodenal (id) bioavailability screen in minipigs, plasma level of parent Mn complex by HPLC/MS/MS
Assay type: in vivo, Gottingen minipig
Details: for Mini-Pig BioA: id 10 mg/kg, vs 1 mg/kg iv parent chloro complex, AUC0→24 h
Procedure: Compounds were screened for oral bioavailability by injecting the formulated prodrugs directly into the duodenum (intraduodenal or id administration) of the minipig test subjects, thus bypassing the acidic environment of the stomach and thereby eliminating potentially misleading oral bioavailability results that could arise from alteration of the test article drug in the acid environment of the stomach.
The studies were conducted at Xenometrics LLC (Stillwell, Kans.) and the id bioavailability was determined using various axial ligand derivative complexes of GC4419, GC4444, GC4403 and GC4401.
Male Gottingen minipigs (4-5 mo old, 9-12 kg weight) were purchased from Marshall BioResources and housed at Xenometrics. […] The distal end was exteriorized with a reusable accessible hub (see surgical details below). During a recovery period of at least 2 weeks the minipigs were handled daily to acclimate them to the test procedures, i.e., id dosing and blood collections. For each experiment, each minipig received a test article drug dissolved or suspended in an excipient vehicle. […] All dosing experiments were conducted in fasted animals. Food was withdrawn from the minipigs 16 hours before dosing. The minipigs had ad libitum access to water. Dosed minipigs were allowed access to food 6 hour after dosing. The test article was administered at a dose of 10 mg/kg parent drug in 0.1 mL/kg vehicle (e.g., 1.5 mL in 15 kg minipig) as a bolus injection (˜1 minute) via the id cannula. The actual amount of total test article drug administered varied with the formula weight of the prodrug. An equal volume of excipient vehicle was used to flush the cannula after the test article was administered. Approximately 6 hours later, corn oil was used to flush the cannula. After approximately 24 hours post-dose, the catheter was flushed with sterile saline solution and capped. At the following time-points 0.25, 0.5, 1, 2, 4, 8, 24 and 48 hour post-injection, 2 mL blood samples were collected by cranial vena cava puncture (4 mL Sodium heparin Vacutainer, 20 g 1.5″ needle) after the skin surface was wiped with ethanol. The minipig was placed in a sling in a recumbent position without anesthesia for the collection of blood samples. The minipigs were never used more than once per 7 days for experimentation. The blood samples were kept on ice until processed for plasma. Blood samples were centrifuged at 1200×g for ten minutes at 4° C. and plasma samples were transferred to 96 well plate tubes, capped and stored at −20° C. until shipment on dry ice to the analytical laboratory used for measuring the concentration of drug in the plasma. The concentration of the parent manganese pentaaza macrocylic ring complex (independent of the composition of the axial ligands) was measured in plasma using a validated HPLC/MS/MS method that is linear between 50 ng/mL and 20,000 ng/mL.
The oils used for preparing the dosing solutions were used as supplied from commercial sources. The Capmul MCM (NF) is a mixture of mono/diglycerides of caprylic/capric acids and was supplied by ABITEC Corporation, Janesville, Wis. The Miglyol 812 N is a mixture of caprylic/capric acid triglycerides and was supplied by Cremer Oleo Division, Eatontown, N.J. Labrafil M 2125 CS (NF) is chemically defined to be linoleoyl polyoxyl-6 glycerides NF and was supplied by Gattefosse, SAINT-PRIEST Cedex, France. Peceol is chemically defined to be the monoglyceride, glyceryl monooleate NF, and was supplied by Gattefosse, SAINT-PRIEST Cedex, France. Maisine 35-1 is chemically defined to be the monoglyceride glyceryl monolinoleate (NF) and was supplied by Gattefosse, SAINT-PRIEST Cedex, France. Labrasol (NF) is chemically defined to be caprylocaproyl polyoxyl-8 glycerides NF and was supplied by Gattefosse, SAINT-PRIEST Cedex, France. Labrafil M 1944 CS is chemically defined to be oleoyl polyoxyl-6 glycerides (NF), and is available from Gattefosse, SAINT-PRIEST Cedex, France. […]

[1] = base oil Capmul MCM, 10% by weight
[2] = base oil Maisine 35-1, 10% by weight
[3] = base oil Labrafil M2125 CS, 10% by weight

Substance | Mini-Pig BioA [1] | Mini-Pig BioA [2] | Mini-Pig BioA (base oil Peceol, 10% by weight) | Mini-Pig BioA [3] | other results
Manganese(II)bis-L-Lactato[(4aS,13aS,17aS,21aS)-1,2,3,4,4a,5,6,12,13,13a,14,15,16,17,17a,18,19,20,21,21a-Eicosahydro-11,7-nitrilo-7H-dibenzo[b,h][1,4,7,10]tetraazacycloheptadecine-κN5,κN13,κN18,κN21,κN22]- [GC4714] | 36% | – | – | – | –
Manganese(II)bis-L-phenylalaninato[(4aS,13aS,17aS,21aS)-1,2,3,4,4a,5,6,12,13,13a,14,15,16,17,17a,18,19,20,21,21a-Eicosahydro-11,7-nitrilo-7H-dibenzo[b,h][1,4,7,10]tetraazacyclo-heptadecine-κN5,κN13,κN18,κN21,κN22]- [GC4704] | 10% | – | – | – | –
Manganese(II)bis-L-phenylglycinato[(4aS,13aS,17aS,21aS)-1,2,3,4,4a,5,6,12,13,13a, 14,15,16,17,17a,18,19,20,21,21a-Eicosahydro-11,7-nitrilo-7H-dibenzo[b,h][1,4,7,10]tetraazacyclo-heptadecine-κN5,κN13,κN18,κN21,κN22]- [GC4702] | 43% | – | 29% | 25% | Mini-Pig BioA (base oil Miglyol 812N, 10% by weight): 42%; oral bioavailability / absorption, comparison in words (minipig id dosing, oil formulations, comparison between axial ligands): much better absorbed
Manganese(II)bis-L-valinato[(4aS,13aS,17aS,21aS)-1,2,3,4,4a,5,6,12,13,13a,14,15,16,17,17a,18,19,20,21,21a-Eicosahydro-11,7-nitrilo-7H-dibenzo[b,h][1,4,7,10]tetraazacyclo-heptadecine-κN5,κN13,κN18,κN21,κN22]- [GC4746] | 13% | – | – | – | –
Manganese(II)bis-cyclohexanebutyrato[(4aS,13aS,17aS,21aS)-1,2,3,4,4a,5,6,12,13,13a, 14,15,16,17,17a,18,19,20,21,21a-Eicosahydro-11,7-nitrilo-7H-dibenzo[b,h][1,4,7,10]tetraazacyclo-heptadecine-κN5,κN13,κN18,κN21,κN22]- [GC4707] | 9% | – | – | – | –
Manganese(II)bis-n-Butyrato[(4aS,13aS,17aS,21aS)-1,2,3,4,4a,5,6,12,13,13a,14,15,16,17,17a,18,19,20,21,21a-Eicosahydro-11,7-nitrilo-7H-dibenzo[b,h][1,4,7,10]tetraazacycloheptadecine-κN5,κN13,κN18,κN21,κN22]- [GC4713] | – | – | 18% | 21% | –
Manganese(II)bis-octanoato[(4aS,13aS,17aS,21aS)-1,2,3,4,4a,5,6,12,13,13a,14,15,16,17,17a,18,19,20,21,21a-Eicosahydro-11,7-nitrilo-7H-dibenzo[b,h][1,4,7,10]tetraazacycloheptadecine-κN5,κN13,κN18,κN21,κN22]- [GC4710] | 13% | 8% | – | 21% | –
Manganese(II)bis-phenylglyoxaloto[(4aS,13aS,17aS,21aS)-1,2,3,4,4a,5,6,12,13,13a,14,15,16,17,17a,18,19,20,21,21a-Eicosahydro-11,7-nitrilo-7H-dibenzo[b,h][1,4,7,10]tetraazacyclohepta-decine-κN5,κN13,κN18,κN21,κN22]- [GC4719] | 25% | 31% | 28% | – | –
Manganese(II)bis-propionato[6R-Methyl(4aR,13aR,17aR,21aR)-1,2,3,4,4a,5,6,12,13,13a,14,15,16,17,17a,18,19,20,21,21a-Eicosahydro-11,7-nitrilo-7H-dibenzo[b,h][1,4,7,10]tetraazacycloheptadecine-κN5,κN13,κN18,κN21,κN22]- [GC4747] | – | – | – | 20% | –
Manganese(II)bis-propionato[(4aS,13aS,17aS,21aS)-1,2,3,4,4a,5,6,12,13,13a,14,15,16,17,17a,18,19,20,21,21a-Eicosahydro-11,7-nitrilo-7H-dibenzo[b,h][1,4,7,10]tetraaza-cycloheptadecine-κN5,κN13,κN18,κN21,κN22]- [GC4711] | 27% | 29% | 29% | 44% | Mini-Pig BioA (base oil Labrafil M1944 CS, 10% by weight): 23%
Manganese(II)bis-racemic-2-phenylpropionato[(4aS,13aS,17aS,21aS)-1,2,3,4,4a,5,6,12,13,13a,14,15,16,17,17a,18,19,20,21,21a-Eicosahydro-11,7-nitrilo-7H-dibenzo[b,h][1,4,7,10]tetraazacycloheptadecine-κN5,κN13,κN18,κN21,κN22]- [GC4705] | 23% | – | 24% | – | –

Continued, in another order:

Mini-Pig BioA [1] | Mini-Pig BioA [2] | Mini-Pig BioA (base oil Peceol, 10% by weight) | Mini-Pig BioA [3] | Substance | other results
24% | 18% | 29% | – | Manganese(II)bis-Benzoato[(4aS,13aS,17aS,21aS)-1,2,3,4,4a,5,6,12,13,13a,14,15,16,17,17a,18,19,20,21,21a-Eicosahydro-11,7-nitrilo-7H-dibenzo[b,h][1,4,7,10]tetraazacycloheptadecine-κN5,κN13,κN18,κN21,κN22]- [GC4712] | –
15% | 8% | 11% | 16% | Manganese(II)bis-acetato[(4aS,13aS,17aS,21aS)-1,2,3,4,4a,5,6,12,13,13a,14,15,16,17,17a,18,19,20,21,21a-Eicosahydro-11,7-nitrilo-7H-dibenzo[b,h][1,4,7,10]tetraazacycloheptadecine-κN5,κN13,κN18,κN21,κN22]- [GC4701] | –
12% | – | – | – | Manganese(II)bis-dodecanoato[(4aS,13aS,17aS,21aS)-1,2,3,4,4a,5,6,12,13,13a,14,15,16,17,17a,18,19,20,21,21a-Eicosahydro-11,7-nitrilo-7H-dibenzo[b,h][1,4,7,10]tetraazacycloheptadecine-κN5,κN13,κN18,κN21,κN22]- [GC4708] | –
32% | 28% | – | – | Manganese(II)bis-phenylacetato[(4aS,13aS,17aS,21aS)-1,2,3,4,4a,5,6,12,13,13a,14,15,16,17,17a,18,19,20,21,21a-Eicosahydro-11,7-nitrilo-7H-dibenzo[b,h][1,4,7,10]tetraazacyclo-heptadecine-κN5,κN13,κN18,κN21,κN22]- [GC4718] | –
17% | – | – | 22% | Manganese(II)bis-pivaloato[(4aS,13aS,17aS,21aS)-1,2,3,4,4a,5,6,12,13,13a,14,15,16,17,17a,18,19,20,21,21a-Eicosahydro-11,7-nitrilo-7H-dibenzo[b,h][1,4,7,10]tetraazacycloheptadecine-κN5,κN13,κN18,κN21,κN22]- [GC4709] | –
– | – | – | 22% | Manganese(II)bis-propionato[(4aR,13aR,17aR,21aR)-1,2,3,4,4a,5,6,12,13,13a,14,15,16,17,17a,18,19,20,21,21a-Eicosahydro-11,7-nitrilo-7H-dibenzo[b,h][1,4,7,10]tetraazacycloheptadecine-κN5,κN13,κN18,κN21,κN22]- [GC4748] | –
28% | – | – | – | Manganese(II)bis-rac-Mandelato[(4aS,13aS,17aS,21aS)-1,2,3,4,4a,5,6,12,13,13a,14,15,16,17,17a,18,19,20,21,21a-Eicosahydro-11,7-nitrilo-7H-dibenzo[b,h][1,4,7,10]tetraazacycloheptadecine-κN5,κN13,κN18,κN21,κN22]- [GC4706] | –
